This passage reports IC50, Ratio Ki and Ki results from ChEMBL document CHEMBL3608249, “Indolylpiperidine derivatives as potent and selective α1B adrenoceptor antagonists” (Bioorg Med Chem Lett, 2015).

Assay [1] deals with T1, Alpha-1B adrenergic receptor (Homo sapiens, UniProt P35368).
T1 sequence (P35368 whole entry): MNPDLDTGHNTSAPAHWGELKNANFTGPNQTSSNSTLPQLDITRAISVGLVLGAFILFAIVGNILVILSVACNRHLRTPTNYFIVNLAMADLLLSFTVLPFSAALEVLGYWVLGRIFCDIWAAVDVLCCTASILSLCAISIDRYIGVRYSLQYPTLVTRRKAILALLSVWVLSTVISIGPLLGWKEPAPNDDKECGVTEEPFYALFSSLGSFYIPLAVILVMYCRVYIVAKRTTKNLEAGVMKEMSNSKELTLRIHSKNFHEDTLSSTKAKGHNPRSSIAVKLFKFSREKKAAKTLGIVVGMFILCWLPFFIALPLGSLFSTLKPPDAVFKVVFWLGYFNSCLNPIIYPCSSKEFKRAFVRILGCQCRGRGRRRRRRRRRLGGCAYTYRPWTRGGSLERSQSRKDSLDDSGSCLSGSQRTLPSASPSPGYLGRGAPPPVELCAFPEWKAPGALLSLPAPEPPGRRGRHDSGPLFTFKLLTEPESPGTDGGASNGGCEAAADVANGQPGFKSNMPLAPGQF
Put plainly: Antagonist activity at human alpha1B adrenoceptor assessed as inhibition of norepinephrine-induced increase of intracellular calcium level by cell based assay. Type of assay: functional. In general terms: Calcium flux is commonly read through the fluorescence of an indicator in the cells.

Assay [2] is filed under the species Rattus norvegicus. Put plainly: Selectivity ratio of Ki for alpha2 adrenoceptor in rat cerebral cortex to Ki for alpha1B adrenoceptor in rat liver membranes. Type of assay: cell membranes.
The species named for assay [3] is Rattus norvegicus. Put plainly: Selectivity ratio of Ki for beta adrenoceptor in rat brain to Ki for alpha1B adrenoceptor in rat liver membranes. Type of assay: cell membranes.
Assay [4] deals with T2, Adrenergic receptor alpha-2 (Rattus norvegicus, UniProt P22086+P19328+P22909).
T2 sequence (P22086 whole entry): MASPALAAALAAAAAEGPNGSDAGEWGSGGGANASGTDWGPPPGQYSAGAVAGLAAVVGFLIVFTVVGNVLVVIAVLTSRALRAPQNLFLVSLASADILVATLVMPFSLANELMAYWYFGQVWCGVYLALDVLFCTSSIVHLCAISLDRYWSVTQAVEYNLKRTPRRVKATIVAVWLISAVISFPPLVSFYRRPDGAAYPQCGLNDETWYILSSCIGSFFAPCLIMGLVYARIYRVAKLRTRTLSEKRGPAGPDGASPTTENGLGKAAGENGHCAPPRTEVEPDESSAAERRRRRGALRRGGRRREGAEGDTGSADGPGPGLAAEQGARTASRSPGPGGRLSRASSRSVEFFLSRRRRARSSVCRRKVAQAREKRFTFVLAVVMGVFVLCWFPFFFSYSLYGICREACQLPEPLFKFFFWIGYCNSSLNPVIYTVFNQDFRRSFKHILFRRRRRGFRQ
T2 sequence (P19328 whole entry): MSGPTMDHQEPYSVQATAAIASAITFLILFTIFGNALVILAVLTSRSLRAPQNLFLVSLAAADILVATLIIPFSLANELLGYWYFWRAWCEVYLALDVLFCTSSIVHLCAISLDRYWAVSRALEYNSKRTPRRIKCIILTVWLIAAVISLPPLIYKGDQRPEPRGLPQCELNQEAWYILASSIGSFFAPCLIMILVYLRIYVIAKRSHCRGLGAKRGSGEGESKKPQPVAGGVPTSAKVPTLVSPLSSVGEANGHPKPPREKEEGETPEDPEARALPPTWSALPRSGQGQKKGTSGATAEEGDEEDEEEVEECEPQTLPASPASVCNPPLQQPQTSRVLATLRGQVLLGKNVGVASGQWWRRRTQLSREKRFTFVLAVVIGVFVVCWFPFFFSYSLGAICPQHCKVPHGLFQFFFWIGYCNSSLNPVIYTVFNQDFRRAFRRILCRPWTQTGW
T2 sequence (P22909 whole entry): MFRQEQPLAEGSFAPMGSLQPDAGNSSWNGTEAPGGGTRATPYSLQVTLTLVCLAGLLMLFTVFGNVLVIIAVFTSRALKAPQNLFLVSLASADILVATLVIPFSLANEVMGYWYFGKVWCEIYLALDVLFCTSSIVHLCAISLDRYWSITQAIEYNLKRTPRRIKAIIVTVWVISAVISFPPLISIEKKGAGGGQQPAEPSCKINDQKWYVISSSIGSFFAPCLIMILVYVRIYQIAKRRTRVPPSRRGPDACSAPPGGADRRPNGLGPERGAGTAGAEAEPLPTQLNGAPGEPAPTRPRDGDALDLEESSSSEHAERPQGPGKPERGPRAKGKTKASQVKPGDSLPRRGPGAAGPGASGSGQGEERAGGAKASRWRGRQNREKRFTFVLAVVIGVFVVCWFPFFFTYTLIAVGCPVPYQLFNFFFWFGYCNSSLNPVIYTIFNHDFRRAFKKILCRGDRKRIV
Put plainly: Binding affinity to alpha2 adrenoceptor in rat cerebral cortex. It is filed as tissue-based.

Assay [5] addresses T3, Alpha-1D adrenergic receptor (Homo sapiens, UniProt P25100).
T3 sequence (P25100 whole entry): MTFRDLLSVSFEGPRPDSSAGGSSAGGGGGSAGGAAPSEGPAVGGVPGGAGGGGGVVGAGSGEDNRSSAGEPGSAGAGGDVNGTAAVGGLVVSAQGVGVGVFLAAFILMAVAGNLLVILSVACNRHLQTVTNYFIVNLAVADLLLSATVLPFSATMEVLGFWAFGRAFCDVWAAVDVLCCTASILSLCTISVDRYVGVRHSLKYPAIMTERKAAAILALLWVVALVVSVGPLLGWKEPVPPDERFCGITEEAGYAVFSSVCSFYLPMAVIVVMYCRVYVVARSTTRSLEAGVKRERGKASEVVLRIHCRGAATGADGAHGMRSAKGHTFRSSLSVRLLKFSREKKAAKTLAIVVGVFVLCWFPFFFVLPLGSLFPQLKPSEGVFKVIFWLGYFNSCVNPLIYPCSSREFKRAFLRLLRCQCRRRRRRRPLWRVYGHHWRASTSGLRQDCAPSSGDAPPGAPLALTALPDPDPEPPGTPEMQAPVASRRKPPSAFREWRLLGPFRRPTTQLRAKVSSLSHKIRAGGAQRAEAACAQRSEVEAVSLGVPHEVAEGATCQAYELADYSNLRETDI
Put plainly: Binding affinity to human recombinant alpha1D adrenoceptor.

The nature of assay [6]: Selectivity ratio of Ki for human recombinant alpha1D adrenoceptor to Ki for alpha1B adrenoceptor in rat liver membranes. It is filed as cell membranes.
Assay [7] addresses Adrenergic receptor beta (Rattus norvegicus, UniProt P18090+P10608+P26255). Description: Binding affinity to beta adrenoceptor in rat brain. It is filed as tissue-based.
Assay [8] has as its target T4, Alpha-1A adrenergic receptor (Rattus norvegicus, UniProt P43140).
T4 sequence (P43140 whole entry): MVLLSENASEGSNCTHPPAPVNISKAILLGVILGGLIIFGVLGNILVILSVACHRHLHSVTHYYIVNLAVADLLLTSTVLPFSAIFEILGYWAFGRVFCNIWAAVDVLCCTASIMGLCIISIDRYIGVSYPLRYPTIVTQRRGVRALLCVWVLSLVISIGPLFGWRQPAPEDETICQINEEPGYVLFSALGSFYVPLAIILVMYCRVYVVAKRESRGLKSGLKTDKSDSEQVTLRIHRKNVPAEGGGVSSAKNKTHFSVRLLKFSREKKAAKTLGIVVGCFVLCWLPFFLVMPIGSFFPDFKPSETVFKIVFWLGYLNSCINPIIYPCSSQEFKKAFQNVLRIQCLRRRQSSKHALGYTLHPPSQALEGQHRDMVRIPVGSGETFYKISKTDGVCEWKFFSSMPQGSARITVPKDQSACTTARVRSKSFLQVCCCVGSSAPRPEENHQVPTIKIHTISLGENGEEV
Put plainly: Displacement of [3H]prazosin from alpha1A adrenoceptor in rat submaxillary gland membrane. Type of assay: cell membranes.

The target of assay [9] is T5, Alpha-1B adrenergic receptor (Rattus norvegicus, UniProt P15823).
T5 sequence (P15823 whole entry): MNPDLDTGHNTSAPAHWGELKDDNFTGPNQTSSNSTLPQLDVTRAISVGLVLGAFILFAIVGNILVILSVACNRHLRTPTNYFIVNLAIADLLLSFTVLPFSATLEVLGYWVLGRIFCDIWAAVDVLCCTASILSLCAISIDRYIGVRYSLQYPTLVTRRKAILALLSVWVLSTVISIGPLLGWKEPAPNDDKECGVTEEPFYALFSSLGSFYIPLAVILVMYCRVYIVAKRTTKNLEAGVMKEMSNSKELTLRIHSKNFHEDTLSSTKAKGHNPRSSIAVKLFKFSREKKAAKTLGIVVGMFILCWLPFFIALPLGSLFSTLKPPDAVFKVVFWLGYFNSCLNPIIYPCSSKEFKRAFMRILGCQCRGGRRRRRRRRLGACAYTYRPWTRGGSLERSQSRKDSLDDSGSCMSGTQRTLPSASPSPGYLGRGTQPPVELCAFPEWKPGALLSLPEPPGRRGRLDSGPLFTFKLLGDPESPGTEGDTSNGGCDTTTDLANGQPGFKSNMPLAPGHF
Put plainly: Displacement of [3H]prazosin from alpha1B adrenoceptor in rat liver membranes. It is filed as cell membranes, Membrane.

The term IC50 denotes the concentration needed to halve the response being measured. As usually defined, the Ki is a dissociation constant, usually derived from enzyme kinetics or from competition with a known ligand. Regarding `Fc1ccc2c(C3CCN(CCCN4CCc5ccccc5C4)CC3)c[nH]c2c1`, the IC50 in assay [1] came to 560 nM. The Ratio Ki in assay [2], in assay [3] and in assay [6] was 40 in each case. The Ki is 90 nM in [4], 16 nM in [5] and more than 1000 nM in assay [7].
Consider `c1ccc2c(C3CCN(CCCn4cccc4)CC3)c[nH]c2c1`, for which the Ki was 86 nM in assay [8] and 11 nM in assay [9].
`CN(C)CCCN1CCC(c2c[nH]c3ccccc23)CC1`: the Ki was determined as 240 nM in [8] and 4.8 nM in assay [9].
For the compound `c1ccc(CCCN2CCC(c3c[nH]c4ccccc34)CC2)cc1`, the Ki in assay [8] turned out to be 16 nM; in [9], 13 nM.
The like results for `c1ccc2c(C3CCNCC3)c[nH]c2c1` were, in that order, 3100 nM and 440 nM.
As for `c1ccc2c(C3CCN(CCCC4CCCCC4)CC3)c[nH]c2c1`, the Ki in [8] stood at 140 nM; in assay [9], 47 nM.
